pIC50: −log10 of the molar value.
Columns and labels:
[1] = test system: subcutaneous xenograft tumor of human colorectal cancer LoVo cells; test: In vivo pharmacodynamics on subcutaneous xenograft tumor of human colorectal cancer LoVo cells in BALB/c nude mouse model; design: species or system BALB/c nude mice; conditions: oral 40 mg/kg, twice a day, 4 days on and 3 days rest per week, 21 days of administration
Procedure: In this assay, the inhibitory effect of the compound of the present disclosure on the growth of subcutaneous xenograft tumor of human colorectal cancer LoVo cells was studied at an oral dosage of 40 mg/kg, twice a day, with 4 consecutive days of administration and 3 days of rest per week.
Assay method: The selected assay animals (provided by Shanghai Sippe-Bk Lab Animal Co., Ltd.) were BALB/c nude mice, 6-8 weeks old, weighing 18-22 grams.
Human colon cancer LoVo cells were cultured in a single layer in vitro with a culture condition of Ham's F-12 medium plus 10% fetal bovine serum, 100 U/mL penicillin, 100 μg/mL streptomycin and 2 mM glutamine, 37° C., 5% CO2. Cells were routinely digested and passaged with trypsin-EDTA twice a week. When the cell saturation was 80%-90%, the cells were collected, counted and inoculated. 0.1 mL (10×10^6 cells) of LoVo cells were subcutaneously inoculated on the right back of each nude mouse, and the mice were grouped and administered when the average tumor volume reached 146 mm^3. Tumor diameters were measured twice a week with vernier calipers. The calculation formula of tumor volume was: V=0.5 a×b^2, wherein a and b represent the long and short diameters of tumor, respectively.
The antitumor efficacy of the compound was evaluated by TGI (%) or relative tumor proliferation rate T/C (%). TGI (%) reflected the inhibition rate of tumor growth. […]

tumor cell line LoVo = test: in vitro LoVo cell proliferation inhibition assay (CellTiter-Glo cell viability); assay type: cell-based; conditions: Homo sapiens, LoVo cells
Procedure: In this assay, the effect of the compounds on inhibiting cell proliferation was studied by detecting the effect of the compounds on the cell viability in vitro in the tumor cell line LoVo.
Cell viability detection using CellTiter-Glo luminescence assay
The following steps were performed according to the instructions of the Promega CellTiter-Glo Luminescent Cell Viability Detection Kit (Promega-G7573).
(1). A CellTiter-Glo buffer was thawed and allowed to stand to reach room temperature.
(2). A CellTiter-Glo substrate was allowed to stand to reach room temperature.
(3). The CellTiter-Glo buffer was added to the CellTiter-Glo substrate in a bottle to dissolve the substrate to formulate a CellTiter-Glo working solution.
(4). The working solution was vortexed slowly for fully dissolution.
(5). A cell culture plate was taken out and allowed to stand for 30 minutes to equilibrate to room temperature.
(6). 50 μL (equal to half the volume of cell culture solution in each well) of the CellTiter-Glo working solution was added into each well. The cell plate was wrapped with aluminum foil to protect the cell plate from light.
(7). The culture plate was shaken on an orbital shaker for 2 minutes to induce cell lysis.
(8). The culture plate was left at room temperature for 10 minutes to stabilize luminescent signals.
(9). The luminescent signals were detected on a plate reader (SpectraMax i3x of MolecμLar Devices).
The inhibition rate (IR) of the assay compounds was calculated by the following formula:
IR (%)=(1−(RLU of compound−RLU of blank control)/(RLU of vehicle control−RLU of blank control))*100%.
The inhibition rates of different concentrations of compounds were calculated in Excel, and then GraphPad Prism software was used to draw inhibition curves and calculate relevant parameters, including the minimum inhibition rate, maximum inhibition rate, and IC50.

CHK1(p-Ser345) = test: Assay of CHK1(p-Ser345) in vitro: inhibition of CHK1 phosphorylation in HT29 cells after 4NQO, alpha screen; assay type: cell-based; conditions: Homo sapiens, read-out: % Inhibition of CHKI phosphorylation; for inhibition at 0.0002 µM: HT-29, 0.2 nM compound; for inhibition at 0.025 µM: HT-29, 25 nM compound
Procedure: The assay process was as follows: • 1) When cells HT29 grew to about 80% confluence, the cells were digested and plated on a 96-well plate (80,000 cells/well), and 90 ul of cell suspension was added to each well; the cell plate was placed in a 5% carbon dioxide, 37° C. incubator overnight; • 2) The next day, the supernatant was removed from the cell plate, and 90 ul of compounds with different concentrations were added; the plate was incubated at 37° C. for 1 hour, and then 10 ul of 7 uM 4NQO medium was added; the plate was incubated at 37° C. for 1 hour; • 3) After the incubation was completed, the supernatant was removed, and 50 ul/well cell lysate was added; the plate was shaken and incubated at room temperature for 50 minutes; • 4) After the incubation was completed, 8 ul/well cell lysate was transferred to a 384-well detection plate, and 5 ul of Acceptor was added; the plate was incubated at room temperature for 2 hours; • 5) Then 2 ul of Donor was added, and the plate was incubated at room temperature overnight; • 6) After the incubation was completed, alpha screen reading was performed.

[2] = Pharmacokinetics in vivo in mice, single intravenous or single oral administration, plasma LC-MS/MS; conditions: mouse, female Balb/c Nude mice
Procedure: The purpose of this assay is to study the pharmacokinetics of the compound of the present disclosure in the plasma of female Balb/c Nude mice after a single intravenous administration or a single oral administration.
In the intravenous group, plasma samples were collected at 9 time points of 5 minutes, 15 minutes, 30 minutes, 1 hour, 2 hours, 4 hours, 6 hours, 8 hours and 24 hours after administration; in the oral group, plasma samples were collected at 8 time points of 15 minutes, 30 minutes, 1 hour, 2 hours, 4 hours, 6 hours, 8 hours and 24 hours after administration; the samples were analyzed by LC-MS/MS for the plasma concentration data of the compound of the present disclosure, and the pharmacokinetic parameters, such as peak concentration, time to peak, clearance rate, half-life, maximum plasma drug concentration, area under the drug-time curve were calculated.

| SMILES | pIC50 (tumor cell line LoVo) | inhibition at 0.0002 µM (CHK1(p-Ser345)) [%] | inhibition at 0.025 µM (CHK1(p-Ser345)) [%] | other results |
| --- | --- | --- | --- | --- |
| C[C@@H]1COCCN1c1cc(C2(C#N)CCOCC2)c2c(F)cnc(-c3ccn[nH]3)c2n1 [Example 3] | 7.21 | 4.52 | 93.2 |  |
| CC(C)Oc1cc(N2CCOC[C@H]2C)nc2c(-c3ccn[nH]3)ncc(F)c12 [Example 8] | 6.74 | 3.79 | 75.9 |  |
| C[C@@H]1COCCN1c1cc(C2CC2)c2c(F)cnc(-c3ccn[nH]3)c2n1 [Example 9] | 7.05 |  |  |  |
| C[C@@H]1COCCN1c1cc(C2=CCOCC2)c2c(F)cnc(-c3ccn[nH]3)c2n1 [Example 10] | 7.09 |  |  |  |
| C[C@@H]1COCCN1c1cc(C2CCOCC2)c2c(F)cnc(-c3ccn[nH]3)c2n1 [Example 11] | 7.23 |  |  |  |
| C[C@@H]1COCCN1c1cc(C2(O)CCOCC2)c2c(F)cnc(-c3ccn[nH]3)c2n1 [Example 12] | 6.89 |  |  |  |
| C[C@@H]1COCCN1c1cc(N2CCOCC2)c2c(F)cnc(-c3ccn[nH]3)c2n1 [Example 13] | 7.18 |  |  |  |
| Cc1noc(C)c1-c1cc(N2CCOC[C@H]2C)nc2c(-c3ccn[nH]3)ncc(F)c12 [Example 15] | 6.74 |  |  |  |
| Cc1n[nH]c(C)c1-c1cc(N2CCOC[C@H]2C)nc2c(-c3ccn[nH]3)ncc(F)c12 [Example 17] | 7.00 |  |  |  |
| Cc1nnn(C)c1-c1cc(N2CCOC[C@H]2C)nc2c(-c3ccn[nH]3)ncc(F)c12 [Example 18] | 6.84 |  |  |  |
| C[C@@H]1COCCN1c1cc(-c2ccc(S(C)(=O)=O)cc2)c2c(F)cnc(-c3ccn[nH]3)c2n1 [Example 23] | 7.08 |  |  |  |
| C[C@@H]1COCCN1c1cc(N2CCC3(CNC3)C2)c2c(F)cnc(-c3ccn[nH]3)c2n1 [Example 27] | 6.43 | 8.45 | 78.3 |  |
| Cn1nccc1-c1cc(N2C3CCC2COC3)nc2c(-c3ccn[nH]3)ncc(F)c12 [Example 28] | 6.60 |  |  |  |
| Cn1nccc1-c1cc(N2CC3CCC(C2)O3)nc2c(-c3ccn[nH]3)ncc(F)c12 [Example 29] | 6.32 | 5.34 | 64.5 |  |

Now from value to molecule, other results behind:

| pIC50 (tumor cell line LoVo) | SMILES | inhibition at 0.0002 µM (CHK1(p-Ser345)) [%] | inhibition at 0.025 µM (CHK1(p-Ser345)) [%] | other results |
| --- | --- | --- | --- | --- |
| 7.19 | C[C@@H]1COCCN1c1cc(-c2ccnn2C)c2c(F)cnc(-c3ccn[nH]3)c2n1 [Example 1] | 10.8 | 98 | TGI (%) [1]: 92.4%; clearance ([2]; Intravenous injection (1 mg/kg), read-out: Clearance rate): 13.7 mL/min/kg; half-life ([2]; Intravenous injection (1 mg/kg), read-out: Half-life T1/2 (converted)): 31.7 min; AUC(0-t) ([2]; Oral (10 mg/kg), read-out: Area under the drug-time curve AUC0-24 h): 41.2 µM·h; Cmax ([2]; Oral (10 mg/kg), read-out: Maximum plasma drug concentration Cmax): 23.6 µM |
| 7.11 | Cc1cnn(C)c1-c1cc(N2CCOC[C@H]2C)nc2c(-c3ccn[nH]3)ncc(F)c12 [Example 2] |  |  |  |
| 6.85 | C[C@@H]1COCCN1c1cc(-c2cnnn2C)c2c(F)cnc(-c3ccn[nH]3)c2n1 [Example 4] |  |  |  |
| 6.40 | C[C@@H]1COCCN1c1cc(-c2ncnn2C)c2c(F)cnc(-c3ccn[nH]3)c2n1 [Example 6] |  |  |  |
| 6.99 | Cc1nn(C)cc1-c1cc(N2CCOC[C@H]2C)nc2c(-c3ccn[nH]3)ncc(F)c12 [Example 14] |  |  |  |
| 7.51 | Cc1cc(-c2cc(N3CCOC[C@H]3C)nc3c(-c4ccn[nH]4)ncc(F)c23)n(C)n1 [Example 16] | 12.3 | 97.5 |  |
| 7.39 | Cc1cnccc1-c1cc(N2CCOC[C@H]2C)nc2c(-c3ccn[nH]3)ncc(F)c12 [Example 20] | 6.34 | 95.5 |  |
| 7.11 | Cc1ncccc1-c1cc(N2CCOC[C@H]2C)nc2c(-c3ccn[nH]3)ncc(F)c12 [Example 21] |  |  |  |
| 7.10 | C[C@@H]1COCCN1c1cc(-c2ccncc2F)c2c(F)cnc(-c3ccn[nH]3)c2n1 [Example 22] |  |  |  |
| 7.23 | C[C@@H]1COCCN1c1cc(-c2ccnc3[nH]ccc23)c2c(F)cnc(-c3ccn[nH]3)c2n1 [Example 24] | 9.72 | 88 |  |
